Paper PMC4130364, “Kinetics of Mushroom Tyrosinase and Melanogenesis Inhibition by N-Acetyl-pentapeptides” (The Scientific World Journal, 2014)

Legend:
B16F10 cells = experiment: Cell viability assay (MTT); type: cell-based, mouse; conditions: 0.1 to 1 mg/mL, 24 h
Procedure: B16F10 cells were cultured in Dulbecco's modified Eagle's medium (DMEM; Gibco Life Technologies, Carlsbad, CA, USA), supplemented with 10% fetal bovine serum, 100 units/mL of penicillin G, 100 μg/mL of streptomycin, and 0.25 μg/mL of amphotericin, and then incubated at 37°C with 5% CO2. The viability of cells treated with N-acetyl-pentapeptides was determined using an MTT assay. Briefly, 3 × 10^4 B16F10 cells were seeded and adhered in 96-well plates. After 24 h, DMEM was removed and 200 μL of various concentrations of fresh DMEM and N-acetyl-pentapeptide solution were added, and the cells were incubated for 24 h. After incubation, the medium was removed, and 100 μL of MTT in PBS solution (0.5 mg/mL) was added to each well, and the cells were incubated for 40 min at 37°C. Subsequently, the MTT solution was removed and 100 μL of DMSO was added to each well, and the plate was gently shaken to dissolve the formazan crystals. The absorbance of each well was measured at 570 nm, using the ELISA reader. All determinations were performed in triplicate.

[1] = target: T1, intracellular tyrosinase activity in B16F10 cells (Mus musculus, UniProt P11344); experiment: Measurement of intracellular tyrosinase activity (α-MSH-induced); type: cell-based; conditions: B16-F10, 1 mg/ml, 24 h after 100 nM α-MSH
T1 construct: Cell lysate; endogenous in cells; host or cells: B16F10 mouse melanoma cells (BCRC, Hsinchu, Taiwan), α-MSH-stimulated
T1 sequence (P11344 19-533): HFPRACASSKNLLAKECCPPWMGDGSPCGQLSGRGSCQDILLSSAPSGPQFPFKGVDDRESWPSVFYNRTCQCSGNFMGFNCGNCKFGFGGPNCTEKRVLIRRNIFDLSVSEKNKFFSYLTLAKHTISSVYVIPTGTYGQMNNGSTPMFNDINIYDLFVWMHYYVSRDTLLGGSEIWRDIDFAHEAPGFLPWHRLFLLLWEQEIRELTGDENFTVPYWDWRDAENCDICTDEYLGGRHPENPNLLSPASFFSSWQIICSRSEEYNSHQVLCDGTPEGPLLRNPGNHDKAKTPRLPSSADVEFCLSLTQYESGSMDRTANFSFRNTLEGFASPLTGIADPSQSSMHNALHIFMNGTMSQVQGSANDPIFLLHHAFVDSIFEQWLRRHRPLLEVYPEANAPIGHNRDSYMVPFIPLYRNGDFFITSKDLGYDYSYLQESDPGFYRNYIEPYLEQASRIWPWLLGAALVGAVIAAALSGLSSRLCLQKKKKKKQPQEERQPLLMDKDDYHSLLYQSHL
Procedure: Fig 1. Inhibitory effects of Ac-P4 on α-MSH-induced tyrosinase activity in B16F10 cells. Ac-P4 inhibited α-MSH-induced tyrosinase activity in a dose-dependent manner […]
Measurement of intracellular tyrosinase activity
The cells were seeded in 24-well plates (8 × 10^4 cells/well), and cultured in 37 °C, 5% CO2 for 24 h. Then the cells were treated with 100 nM α-MSH for 24 h and then added Ac-P4 for 24 h. Cells rinsed with PBS twice and lysed with phosphate buffer (pH 6.8) containing 1% Triton X-100 followed by freezing and thawing three times. Centrifugation at 15,000 rpm for 10 min obtained clarified lysates. Cell lysate (90 μL) mixed with fresh prepared L-DOPA (10 μL) at 37 °C for 30 min. Tyrosinase activity was evaluated by the absorbance at 475 nm using an ELISA reader (Tecan, […]
Tyrosinase activity (%) = (△Abssample/△Abscontrol) ×100%.
(also on this page, place not known: (mg/ml)control 0 0.1 0.5 Relative (% control) 0 50 150 200 250 α-MSH + α-MSH - + + + + * 1 of 100 Ac-P4 Tyrosinase activity)
(1 picture or pasted object on this page, not shown here)

B16F10 melanoma cells = experiment: Assessment of cellular melanin content (α-MSH-induced melanogenesis); type: cell-based, mouse
Procedure: Cellular melanin content was determined as described previously. Briefly, 1 × 10^5 B16F10 cells were seeded in 24-well plates and cultured at 37°C and 5% CO2 for 48 h. Subsequently, the cells were treated with 100 nM α-MSH for 24 h, followed by various concentrations (0, 0.1, 0.5, and 1 mg/mL) of Ac-P4 or kojic acid for 24 h. The cells were washed twice with PBS and cell pellets were then dissolved in 100 μL of 1 N NaOH in 10% DMSO, for 1 h at 80°C. The relative melanin content was determined by measuring the absorbance at 405 nm, using the ELISA reader (TECAN, Austria). The melanin content was calculated using the following equation: (Δsample/Δcontrol) × 100%. All determinations were performed in triplicate.

mushroom tyrosinase [2] = target: T2, mushroom tyrosinase (Agaricus bisporus, UniProt C7FF04); experiment: Kinetic analysis of tyrosinase inhibition (Lineweaver-Burk plots); type: biochemical; conditions: for Inhibition type: Lineweaver-Burk plot analysis; for K IS: inhibition constant from secondary plot (enzyme-substrate complex); for K IS / Ki: L-DOPA 0.25-4 mM, inhibitor 0, 0.1, 0.2 mg/mL; for Ki: inhibition constant from secondary plot
Procedure: In a 96-well plate, the kinetic properties of N-acetyl-pentapeptides (20 μL of 0, 0.1, and 0.2 mg/mL) in the inhibition of tyrosinase (20 μL of 212.65 μg/mL) were determined using various concentrations of L-DOPA (160 μL of 0.25, 0.5, 1, 2, and 4 mM) as substrates. The reaction mixture was measured using an ELISA reader at 475 nm for 10 min. All experiments were conducted in triplicate. The inhibition mechanism was assessed using Lineweaver-Burk plots, and the inhibition constants K IS and K I were obtained from second plots of the apparent 1/V max and apparent K m/V max against the inhibitor concentration, respectively, as described by Liao et al..

mushroom tyrosinase [3] = target: T2, mushroom tyrosinase; experiment: Inhibitory effect on mushroom tyrosinase (diphenolase activity, oxidation of L-DOPA); type: biochemical; conditions: for IC50: 1 mM L-DOPA substrate, 25°C, 30 min, means ± SD of three replicates, read-out: IC50 against diphenolase activity of mushroom tyrosinase (converted)
Procedure: In a 96-well plate, 20 μL of 0, 0.01, 0.05, 0.1, 0.2, 0.5, and 1 mg/mL of N-acetyl-pentapeptides was mixed with 160 μL of 1 mM L-DOPA. After 20 μL of 212.65 μg/mL of mushroom tyrosinase (in 50 mM potassium phosphate buffer) was added, the solutions were incubated at 25°C for 30 min. All experiments were conducted in triplicate. The absorbance was measured at 475 nm by using an ELISA reader (TECAN, Austria). The tyrosinase inhibitory activity was calculated using the following equation: [(Δcontrol − Δsample)/Δcontrol] × 100%. The IC50 value was determined using regression of a constructing dose-response curve at which 50% target activity is lost.

diphenolase = system: diphenolase; parameters: method as in PMID 7714722; conditions: ref [40], [41]; cited from earlier work

T2 sequence (C7FF04 1-392): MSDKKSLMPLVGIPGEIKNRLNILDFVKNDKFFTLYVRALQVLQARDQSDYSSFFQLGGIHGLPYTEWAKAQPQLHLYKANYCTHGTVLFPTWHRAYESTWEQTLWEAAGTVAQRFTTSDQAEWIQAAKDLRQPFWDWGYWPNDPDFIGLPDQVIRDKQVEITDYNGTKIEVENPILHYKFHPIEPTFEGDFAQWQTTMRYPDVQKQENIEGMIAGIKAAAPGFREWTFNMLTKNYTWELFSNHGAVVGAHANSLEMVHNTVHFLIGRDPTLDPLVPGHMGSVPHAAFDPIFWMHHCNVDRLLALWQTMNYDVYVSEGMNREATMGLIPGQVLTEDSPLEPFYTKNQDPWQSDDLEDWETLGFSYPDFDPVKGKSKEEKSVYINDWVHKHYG

## Ac-RSRFS-OH [Ac-P4, Ac-RSRFS]
B16F10 cells
  cytotoxicity in B16F10 cells: did not induce any significant cytotoxicity
[1]
  inhibition at 1000 µg/mL: 57.9%
B16F10 melanoma cells; 0.1 mg/mL, 24 h after 100 nM α-MSH
  inhibitory effect on melanin production: 48.63%
B16F10 melanoma cells; 0.5 mg/mL, 24 h after 100 nM α-MSH
  inhibitory effect on melanin production: 78.18%
B16F10 melanoma cells; 1 mg/mL, 24 h after 100 nM α-MSH
  inhibitory effect on melanin production: 94.7%
B16F10 melanoma cells; ratio of melanin content IC50s (mM)
  fold stronger than kojic acid in inhibiting melanin formation: 16.7 fold
Mushroom tyrosinase [2]
  Inhibition type: Mixed
  K IS: 0.517 mg/mL
Mushroom tyrosinase [3]; peptide concentration 0.5 mg/mL (b28 words it as concentrations less than 0.5 mg/mL)
  lag time: 80 s
Mushroom tyrosinase [3]; peptide concentration 1 mg/mL
  lag time: 500 s

## O=c1cc(CO)occ1O [kojic acid, reference compound]
diphenolase
  inhibition type on diphenolase: mixed-type
B16F10 melanoma cells; Mus musculus, B16-F10, 0.1 mg/mL, 24 h after 100 nM α-MSH, read-out: inhibitory effect on melanin production
  inhibition at 100 µg/mL: 47.2%
B16F10 melanoma cells; Mus musculus, B16-F10, 0.5 mg/mL, 24 h after 100 nM α-MSH, read-out: inhibitory effect on melanin production
  inhibition at 500 µg/mL: 70.6%
B16F10 melanoma cells; Mus musculus, B16-F10, 1 mg/mL, 24 h after 100 nM α-MSH, read-out: inhibitory effect on melanin production
  inhibition at 1000 µg/mL: 98.6%
B16F10 melanoma cells; Mus musculus, B16-F10, B16F10, α-MSH-induced, reillustrated in molarity, read-out: IC50 for inhibitory effect on melanin content
  IC50: 1.51 mM

## Ac-RSRFK-OH [Ac-P1, Ac-RSRFK]
Mushroom tyrosinase [2]
  Inhibition type: Mixed
  K IS: 1.278 mg/mL
  Ki: 0.376 mM
Mushroom tyrosinase [3]
  IC50: 1.02 mM
Mushroom tyrosinase [3]; peptide concentration 1 mg/mL
  lag time: 110 s

## Ac-KSRFR-OH [Ac-P2, Ac-KSRFR]
Mushroom tyrosinase [2]
  Inhibition type: Mixed
  K IS: 2.003 mg/mL
  Ki: 0.382 mM
Mushroom tyrosinase [3]
  IC50: 1.06 mM
Mushroom tyrosinase [3]; peptide concentration 1 mg/mL
  lag time: 80 s

## Ac-KSSFR-OH [Ac-P3, Ac-KSSFR]
Mushroom tyrosinase [2]
  Inhibition type: Mixed
  K IS: 1.685 mg/mL
  Ki: 0.415 mM
Mushroom tyrosinase [3]
  IC50: 1.22 mM
Mushroom tyrosinase [3]; peptide concentration 1 mg/mL
  lag time: 70 s
